Patent publication US5750531A, “Pyrimidine derivatives and processes for the preparation thereof” (Yuhan Corporation, priority 1994, dated 1998)
Counter-ions that a name gives are not always drawn.

Assays:
[1] = molecular target: proton pump(H^+ /K^+ ATPase); experiment: Inhibition of proton pump(H^+ /K^+ ATPase) activity; assay type: biochemical; conditions: pH 6.0, 37° C., 30 minutes preincubation and 30 minutes reaction; read-out: IC50 Test compound
Protocol: Test 1: Inhibition of proton pump(H^+ /K^+ ATPase) activity
A proton pump enzyme source was prepared by the same method as in Experiment 1-1 of WO 94/14795. Further, the inhibitory effect of proton pump activity was measured by the same method as in Experiment 1-2 of WO 94/14795.
Namely, the proton pump activity stimulated by Mg^++ was used as a negative comparative group, and the activity stimulated by Mg^++ and K^+ was used as a positive comparative group. The comparative compound was omeprazole.
Test tubes were divided into 4 groups: Group 1 as negative comparative group(n=3), Group 2 as positive comparative group(n=3), Group 3(n=5×2) to be administered with the compound of the present invention and Group 4(n=5×2) to be administered with the comparative compound.
The inhibitory effects of Groups 3 and 4 on proton pump activity were measured by employing the compound prepared in Example and omeperazole, respectively, each of which was dissolved in dimethylsulfoxide at 5 different concentrations.
To each of Groups 1, 2, 3 and 4 were added 100 μl of magnesium chloride(40 mM) dissolved in 40 mM Tris-HCl buffer(pH 6.0) and 100μ of the enzyme source. Then, 50μ of potassium chloride(50 mM) and 50 μl of ammonium chloride(6 mM) dissolved in 40 mM Tris-HCl buffer(pH 6.0) were added to all groups except for Group 1.
10 μl of dimethylsulfoxide was added to each of Groups 1 and 2; and to Group 3 was added 10 μl of the solution in which the compound prepared in Example was dissolved in dimethylsulfoxide at 5 different concentrations(n=5×2). To Group 4, 10 μl of the solution prepared by dissolving omeprazole in dimethylsulfoxide at 5 different concentrations(37.6, 21.4, 12.2, 7.0 and 4.0 μM) was added(n=5×2). 40 mM Tris-HCl buffer(pH=6.0) was added thereto so as to make the total volume 400 μl.
Thereafter, the test tubes of each Group were placed at 37° C. for 30 minutes for the preincubation. 100 μl of ATP solution (6.6 mM) was added until the reaction volume became 500 μl. After the reaction was carried out at 37° C. for 30 minutes, 25% cold trichloroacetic acid was added to terminate the enzyme reaction. The released inorganic phosphate was measured by an automatic analyzer(Express 550, Corning).
The difference between Group 1 and Group 2 represents the proton pump activity activated by K^+ only. The inhibition percentages of Groups 3 and 4 were calculated from Litchfield-wilcoxon equation[see, e.g., J. pharmacol. Exp. Ther., 96, 99(1949)]. The concentrations of the test compounds which inhibit 50% of the proton pump activity are represented as IC50 in Table 1.

gastric secretion = experiment: Inhibition of gastric secretion (pylorus ligation, Shay method); assay type: in vivo, Male Sprague-Dawley rats; conditions: 20 mg/kg intraduodenally, 5 hours; for Rel. Conc.: acid concentration relative to omeprazole; for Relative Acid Output: acid output relative to omeprazole; for Rel. Vol.: gastric juice volume relative to omeprazole
Protocol: Inhibition of gastric secretion […] Under ether anesthesia, the abdomen was incised, and the pylorus was ligated. […] After closing the abdominal cavity, the rats were placed for 5 hours and then killed by cervical dislocation. The stomach was extracted to obtain gastric juice. The gastric juice was centrifuged at 1,000 g to remove precipitates. The amount and acidity of the gastric juice were measured. Relative volumes, relative acid concentrations and relative acid outputs of the test compounds were calculated from equations(I), (II) and (III) and the results are shown in Table 2. […] Group 3) (II) […] (III)

| IC50 [1] [nM] | SMILES | Rel. Conc. (gastric secretion) | Relative Acid Output (gastric secretion) | Rel. Vol. (gastric secretion) |
| --- | --- | --- | --- | --- |
| ~15000 | CC1c2ccccc2CCN1c1nc(N(C)c2ccccc2)nc2c1CCC2 (stereo not drawn) [Example 31, 2-(N-methylphenylamino)-4-(1-methyl-1,2,3,4-tetrahydroisoquinolin-2-yl)cyclopenta[d]pyrimidine hydrochloride] | 0.21 | 0.74 | 0.83 |
| 4300 | CCc1cc(N2CCc3ccccc3C2C)nc(Nc2ccc(F)cc2)n1.Cl (stereo not drawn) [Example 6, 6-ethyl-2-(4-fluorophenylamino)-4-(1-methyl-1,2,3,4-tetrahydroisoquinolin-2-yl)pyrimidine hydrochloride] | 0.28 | 0.64 | 0.64 |
| 4400 | Cc1nc(N(C)c2ccccc2)nc(N2CCc3ccccc3[C@@H]2C)c1C.Cl [Example 20, (S)-5,6-dimethyl-2-(N-methylphenylamino)-4-(1-methyl-1,2,3,4-tetrahydroisoquinolin-2-yl)pyrimidine hydrochloride] | 1.75 | 1.28 | 1.66 |
| 3900 | Cc1nc(N(C)c2ccccc2)nc(N2CCc3ccccc3[C@H]2C)c1C.Cl [Example 19, (R)-5,6-Dimethyl-2-(N-methylphenylamino)-4-(1-methyl-1,2,3,4-tetrahydroisoquinolin-2-yl)pyrimidine hydrochloride] | 1.86 | 1.43 | 1.8 |
| 1100 | Cc1ccccc1Nc1nc2c(c(N3CCc4ccccc4C3)n1)CCCC2.Cl [Example 51, 2-(2-methylphenylamino)-4-(1,2,3,4-tetrahydroisoquinolin-2-yl)-5,6,7,8-tetrahydroquinazoline hydrochloride] | 0.12 | 0.59 | 0.59 |
| 3100 | Cc1nc(N2CCc3ccccc3C2C)nc(Nc2ccc(F)cc2)c1C.Cl (stereo not drawn) [Example 68, 5,6-dimethyl-4-(4-fluorophenylamino)-2-(1-methyl-1,2,3,4-tetrahydroisoquinolin-2-yl)pyrimidine hydrochloride] | 0.23 | 0.67 | 1.52 |
| ~11300 | CCc1nc(Nc2ccc(F)cc2C)nc(N2CCc3ccccc3C2)c1C.Cl [Example 44, 5-methyl-6-ethyl-2-(2-methyl-4-fluorophenylamino)-4-(1,2,3,4-tetrahydroisoquinolin-2-yl)pyrimidine hydrochloride] | 0.33 | 0.41 | 0.27 |
| 500 | Cc1cc(F)ccc1Nc1nc(C)c(C)c(N2CCc3ccccc3[C@H]2C)n1.Cl [Example 13, (R)-5,6-Dimethyl-2-(2-methyl-4-fluorophenylamino)-4-(1-methyl-1,2,3,4-tetrahydroisoquinolin-2-yl)pyrimidine hydrochloride] | 0.46 | 0.81 | 1.72 |
| ~5500 | Cc1cc(F)ccc1Nc1nc2c(c(N3CCc4ccccc4C3)n1)CCCC2.Cl [Example 48, 2-(2-methyl-4-fluorophenylamino)-4-(1,2,3,4-tetrahydroisoquinolin-2-yl)-5,6,7,8-tetrahydroquinazoline hydrochloride] | 0.04 | 0.16 | 0.17 |
| 2000 | Cc1nc(Nc2ccccc2)nc(N2CCc3ccccc3[C@@H]2C)c1C [Example 23, hydrochloride] | 0.78 | 0.88 | 0.92 |
| ~19200 | CCc1nc(N(C)c2ccccc2)nc(N2CCc3ccccc3C2)c1C.Cl [Example 46, 5-methyl-6-ethyl-2-(N-methylphenylamino)-4-(1,2,3,4-tetrahydroisoquinolin-2-yl)pyrimidine hydrochloride] | 0.44 | 0.74 | 0.73 |
| 600 | Cc1cc(F)ccc1Nc1nc(C)c(C)c(N2CCc3ccccc3C2)n1.Cl [Example 41, 5,6-dimethyl-2-(2-methyl-4-fluorophenylamino)-4-(1,2,3,4-tetrahydroisoquinolin-2-yl)pyrimidine hydrochloride] | 1.87 | 1.12 | 0.94 |
| 1500 | Cc1nc(Nc2ccc(F)cc2)nc(N2CCc3ccccc3C2)c1C.Cl [Example 42, 5,6-dimethyl-2-(4-fluorophenylamino)-4-(1,2,3,4-tetrahydroisoquinolin-2-yl)pyrimidine hydrochloride] | 1.4 | 1.15 | 1.15 |
| 1300 | Cc1cc(F)ccc1Nc1nc(N2CCc3ccccc3[C@@H]2C)nc(C)c1C.Cl [Example 67, (S)-5,6-dimethyl-4-(2-methyl-4-fluorophenylamino)-2-(1-methyl-1,2,3,4-tetrahydroisoquinolin-2-yl)pyrimidine hydrochloride] | 0.31 | 0.62 | 1.36 |
| 1400 | Cc1nc(Nc2ccccc2)nc(N2CCc3ccccc3[C@H]2C)c1C [Example 22, (R)-5,6-Dimethyl-2-(4-phenylamino)-4-(1-methyl-1,2,3,4-tetrahydroisoquinolin-2-yl)pyrimidine hydrochloride] | 0.8 | 0.90 | 0.99 |
| 2900 | Cc1nc(N2CCc3ccccc3[C@H]2C)nc(Nc2ccc(F)cc2)c1C.Cl [Example 69, (R)-5,6-dimethyl-4-(4-fluorophenylamino)-2-(1-methyl-1,2,3,4-tetrahydroisoquinolin-2-yl)pyrimidine hydrochloride] | 0.39 | 0.76 | 1.61 |
| 500 | Cc1cc(N2CCc3ccsc3C2C)nc(Nc2ccc(F)cc2C)n1.Cl (stereo not drawn) [Example 52, 6-methyl-2-(2-methyl-4-fluorophenylamino)-4-(7-methyl-4,5,6,7-tetrahydrothieno[2,3-c]pyridin-6-yl)pyrimidine hydrochloride] | 0.94 | 1.12 | 1.34 |
| ~5000 | Cc1cc(F)ccc1Nc1nc2c(c(N3CCc4ccccc4C3)n1)CCC2 [Example 47, 2-(2-methyl-4-fluorophenylamino)-4-(1,2,3,4-tetrahydroisoquinolin-2-yl)cyclopenta[d]pyrimidine hydrochloride] | 0.14 | 0.38 | 0.38 |
| 500 | Cc1cc(F)ccc1Nc1nc(N2CCc3ccccc3C2)nc(C)c1C.Cl [Example 74, 5,6-dimethyl-4-(2-methyl-4-fluorophenylamino)-2-(1,2,3,4-tetrahydroisoquinolin-2-yl)pyrimidine hydrochloride] | 1.49 | 1.16 | 1.22 |
| 2100 | Cc1cc(N2CCc3ccsc3C2C)nc(Nc2ccc(F)cc2)n1.Cl (stereo not drawn) [Example 53, 6-methyl-4-(7-methyl-4,5,6,7-tetrahydrothieno[2,3-c]pyridin-6-yl)-2-(4-fluorophenylamino)pyrimidine hydrochloride] | 1.14 | 0.55 | 0.47 |
| 1400 | Cc1cc(F)ccc1Nc1nc(N2CCc3ccccc3C2)nc2c1CCCC2.Cl [Example 83, 4-(2-methyl-4-fluorophenylamino)-2-(1,2,3,4-tetrahydroisoquinolin-2-yl)-5,6,7,8-tetrahydroquinazoline hydrochloride] | 1.29 | 1.13 | 1.19 |
